Reference: ChEMBL document CHEMBL1201862, “PubChem BioAssay data set” (2004)
Active and inactive are the calls of the source.

Tests used:
[1] = molecular target: T1, G-protein coupled receptor 35 (Homo sapiens, UniProt Q9HC97); assay: SAR analysis of Antagonists of the GPR35 Receptor using an Image-Based Assay - Set 4. [Related pubchem assays (depositor defined):[…]]; assay type: functional
[2] = molecular target: T2, Cannabinoid receptor 1 (Homo sapiens, UniProt P21554); assay: SAR analysis of agonists of the Cannabinoid Receptor 1 using an Image-Based Assay - Set 3. [Related pubchem assays (depositor defined):AID1961, AID1965]; assay type: functional
T2 sequence (P21554 whole entry): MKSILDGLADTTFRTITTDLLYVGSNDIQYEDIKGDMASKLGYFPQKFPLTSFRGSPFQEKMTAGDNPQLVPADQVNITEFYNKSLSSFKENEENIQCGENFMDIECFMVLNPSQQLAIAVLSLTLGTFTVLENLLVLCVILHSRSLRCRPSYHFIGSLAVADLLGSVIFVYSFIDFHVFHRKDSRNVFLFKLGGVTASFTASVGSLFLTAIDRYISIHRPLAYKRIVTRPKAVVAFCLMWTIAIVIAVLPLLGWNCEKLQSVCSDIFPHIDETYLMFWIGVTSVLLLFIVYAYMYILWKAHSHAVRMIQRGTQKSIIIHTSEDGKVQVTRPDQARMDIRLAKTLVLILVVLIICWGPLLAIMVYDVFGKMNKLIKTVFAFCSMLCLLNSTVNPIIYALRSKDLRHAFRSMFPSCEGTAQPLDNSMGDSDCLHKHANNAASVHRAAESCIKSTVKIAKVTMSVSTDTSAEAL

[3] = molecular target: T3, Cannabinoid receptor 2 (Homo sapiens, UniProt P34972); assay: SAR analysis of agonists of the Cannabinoid Receptor 2 using an Image-Based Assay - Set 2. [Related pubchem assays (depositor defined):AID1961, AID1965]; assay type: functional
T3 sequence (P34972 whole entry): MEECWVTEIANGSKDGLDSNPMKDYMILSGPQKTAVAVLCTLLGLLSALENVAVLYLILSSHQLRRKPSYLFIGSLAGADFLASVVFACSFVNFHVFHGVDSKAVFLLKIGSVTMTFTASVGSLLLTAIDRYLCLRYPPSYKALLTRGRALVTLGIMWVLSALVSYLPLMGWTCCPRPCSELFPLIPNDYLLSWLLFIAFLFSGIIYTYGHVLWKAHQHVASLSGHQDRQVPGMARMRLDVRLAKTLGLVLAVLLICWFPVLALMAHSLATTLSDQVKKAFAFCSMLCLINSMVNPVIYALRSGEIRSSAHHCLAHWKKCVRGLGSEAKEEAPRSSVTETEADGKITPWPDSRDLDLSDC

[4] = molecular target: T3, Cannabinoid receptor 2; assay: SAR analysis of antagonists of the Cannabinoid Receptor 2 using an Image-Based Assay - Set 2. [Related pubchem assays (depositor defined):AID1961, AID1965]; assay type: functional
[5] = molecular target: G-protein coupled receptor 55 (Homo sapiens, UniProt Q9Y2T6); assay: SAR analysis of selective Agonists of GPR55 using an Image-Based Assay - Set 2. [Related pubchem assays (depositor defined):AID1961, AID1965]; assay type: functional
Chain of G-protein coupled receptor 55 (Q9Y2T6 whole entry): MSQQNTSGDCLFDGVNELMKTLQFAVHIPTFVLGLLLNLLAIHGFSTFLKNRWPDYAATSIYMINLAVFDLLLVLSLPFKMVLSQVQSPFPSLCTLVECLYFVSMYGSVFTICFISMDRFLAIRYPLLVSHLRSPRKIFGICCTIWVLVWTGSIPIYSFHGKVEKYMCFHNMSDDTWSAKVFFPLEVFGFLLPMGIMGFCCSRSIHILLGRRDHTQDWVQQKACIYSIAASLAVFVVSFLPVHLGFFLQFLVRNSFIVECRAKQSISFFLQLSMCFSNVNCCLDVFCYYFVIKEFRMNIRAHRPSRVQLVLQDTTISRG

[6] = molecular target: T1, G-protein coupled receptor 35; assay: SAR analysis of Agonists of the GPR35 Receptor using an Image-Based Assay - Set 3. [Related pubchem assays (depositor defined):AID1961, AID1965]; assay type: functional
[7] = molecular target: T2, Cannabinoid receptor 1; assay: SAR analysis of antagonists of the Cannabinoid Receptor 1 using an Image-Based Assay - Set 3. [Related pubchem assays (depositor defined):AID1961, AID1965]; assay type: functional
[8] = molecular target: T4, Mannose-6-phosphate isomerase (Homo sapiens, UniProt P34949); assay: phosphomannose isomerase inhibition – biochemical, fluorescence intensity, confirmation (AID 1535)
T4 sequence (P34949 whole entry): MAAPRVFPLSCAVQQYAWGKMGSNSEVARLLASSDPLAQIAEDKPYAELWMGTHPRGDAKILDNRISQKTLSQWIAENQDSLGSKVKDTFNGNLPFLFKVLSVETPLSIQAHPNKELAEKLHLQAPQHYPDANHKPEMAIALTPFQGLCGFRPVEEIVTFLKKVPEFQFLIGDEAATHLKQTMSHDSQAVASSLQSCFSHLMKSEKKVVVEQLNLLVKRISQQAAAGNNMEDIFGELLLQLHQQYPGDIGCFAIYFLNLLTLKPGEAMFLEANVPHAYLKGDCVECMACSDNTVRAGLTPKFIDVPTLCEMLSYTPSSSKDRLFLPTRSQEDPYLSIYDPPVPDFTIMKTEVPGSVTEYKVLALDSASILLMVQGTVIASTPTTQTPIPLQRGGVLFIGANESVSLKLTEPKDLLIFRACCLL

[9] = system: CHO; assay: CHO cell viability loss, potency – luminescence, cytotoxicity control for TLR9-MyD88 binding inhibitor project, dose response (AID 588339); assay type: functional, cell-based, hamster; details: Cricetulus griseus;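 note: CHO cells stably coexpressing TLR9 and MyD88 fusions from primary screen; compound exposure lasted 48 hours before viability readout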
[10] = molecular target: Intestinal-type alkaline phosphatase (Mus musculus, UniProt P24822); assay: PubChem AID 488874; assay type: functional
Chain of Intestinal-type alkaline phosphatase (Mus musculus, UniProt P24822) (P24822 whole entry): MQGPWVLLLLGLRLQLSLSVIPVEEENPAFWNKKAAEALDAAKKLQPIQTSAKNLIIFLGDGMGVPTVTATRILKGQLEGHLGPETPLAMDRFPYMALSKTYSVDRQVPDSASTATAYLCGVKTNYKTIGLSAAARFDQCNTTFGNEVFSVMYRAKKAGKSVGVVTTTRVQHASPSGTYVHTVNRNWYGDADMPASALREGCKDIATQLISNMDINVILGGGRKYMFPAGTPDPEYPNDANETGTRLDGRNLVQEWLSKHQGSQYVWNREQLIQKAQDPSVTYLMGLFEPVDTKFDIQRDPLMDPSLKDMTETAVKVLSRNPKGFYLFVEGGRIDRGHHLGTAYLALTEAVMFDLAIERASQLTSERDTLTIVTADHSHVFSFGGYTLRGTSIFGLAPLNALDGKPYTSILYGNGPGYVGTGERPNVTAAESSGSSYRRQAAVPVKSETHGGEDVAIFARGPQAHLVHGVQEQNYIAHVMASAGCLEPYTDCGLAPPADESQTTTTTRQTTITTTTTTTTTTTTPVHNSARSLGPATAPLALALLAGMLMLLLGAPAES

[11] = molecular target: T5, Endoribonuclease toxin MazF (Escherichia coli K-12, UniProt P0AE70); assay: substrate-only fluorescence increase artefacts – biochemical, single-stranded RNase substrate, counter-screen for MazEF activator project, dose response (AID 588502); assay type: functional
T5 sequence (P0AE70 whole entry): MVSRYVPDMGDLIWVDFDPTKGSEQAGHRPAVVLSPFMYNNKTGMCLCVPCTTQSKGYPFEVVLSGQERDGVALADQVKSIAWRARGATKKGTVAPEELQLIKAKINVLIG

[12] = molecular target: T5, Endoribonuclease toxin MazF; assay: activation of MazEF endoribonuclease cleavage – biochemical, fluorescence, single-stranded RNA substrate, uHTS hits, dose response (AID 588481); assay type: functional
[13] = molecular target: T6, Intestinal-type alkaline phosphatase (Homo sapiens, UniProt P09923); assay: activation of human intestinal alkaline phosphatase – biochemical, luminescent, uHTS hits, set 2, dose response (AID 488817); assay type: functional;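 note: potency of activators that raise enzyme activity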
T6 sequence (P09923 whole entry): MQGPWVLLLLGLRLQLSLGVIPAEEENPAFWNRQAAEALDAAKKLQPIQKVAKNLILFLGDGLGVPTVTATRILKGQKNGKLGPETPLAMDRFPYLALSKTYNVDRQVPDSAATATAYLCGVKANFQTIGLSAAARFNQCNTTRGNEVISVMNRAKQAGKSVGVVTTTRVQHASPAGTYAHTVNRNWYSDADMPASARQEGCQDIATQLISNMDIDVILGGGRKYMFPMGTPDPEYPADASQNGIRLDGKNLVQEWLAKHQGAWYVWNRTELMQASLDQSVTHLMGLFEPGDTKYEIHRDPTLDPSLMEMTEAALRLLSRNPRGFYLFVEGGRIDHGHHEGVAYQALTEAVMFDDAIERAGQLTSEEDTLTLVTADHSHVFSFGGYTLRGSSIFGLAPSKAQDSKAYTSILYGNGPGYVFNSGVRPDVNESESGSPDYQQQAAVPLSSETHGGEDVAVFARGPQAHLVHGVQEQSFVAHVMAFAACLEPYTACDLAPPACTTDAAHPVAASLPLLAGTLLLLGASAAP

[14] = molecular target: Alkaline phosphatase, placental type (Homo sapiens, UniProt P05187); assay: human placental alkaline phosphatase inhibition – biochemical, luminescence, confirmation (AID 1512); assay type: functional
Chain of Alkaline phosphatase, placental type (P05187 whole entry): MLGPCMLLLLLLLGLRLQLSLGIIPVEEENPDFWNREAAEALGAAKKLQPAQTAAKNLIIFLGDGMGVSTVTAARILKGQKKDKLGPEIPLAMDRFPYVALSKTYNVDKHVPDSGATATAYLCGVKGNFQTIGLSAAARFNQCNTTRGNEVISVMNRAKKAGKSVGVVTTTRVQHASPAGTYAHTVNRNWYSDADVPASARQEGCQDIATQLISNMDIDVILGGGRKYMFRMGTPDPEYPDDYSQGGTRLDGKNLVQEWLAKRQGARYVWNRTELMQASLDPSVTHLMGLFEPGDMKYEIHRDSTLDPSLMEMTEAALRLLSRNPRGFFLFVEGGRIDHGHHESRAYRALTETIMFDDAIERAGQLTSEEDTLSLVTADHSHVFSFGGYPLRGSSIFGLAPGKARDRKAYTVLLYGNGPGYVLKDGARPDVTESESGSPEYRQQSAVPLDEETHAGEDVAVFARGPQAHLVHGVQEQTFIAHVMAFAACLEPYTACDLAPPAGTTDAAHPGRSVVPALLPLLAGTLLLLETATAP

[15] = molecular target: T6, Intestinal-type alkaline phosphatase; assay: human intestinal alkaline phosphatase activators, dose response, biochemical, luminescence, uHTS hits (AID 463120); assay type: functional
[16] = microbe, parasite or virus in culture; assay type: functional; details: Mycobacterium tuberculosis
[17] = molecular target: T4, Mannose-6-phosphate isomerase; assay: Confirmation of compounds inhibiting phosphomannose isomerase (PMI) via a fluorescence intensity assay using a high concentration of mannose 6-phosphate. [Related pubchem assays (depositor defined):AID1209, AID1220, AID1545, AID1553, AID1620]
[18] = molecular target: Heat shock protein HSP 90-alpha (Homo sapiens, UniProt P07900); assay type: functional, organism-based
[19] = viability of uninfected HEp-2 cells – cell-based, HTS, cytotoxicity control for RSV inhibitor project, dose response (AID 2410); assay type: functional; details: human respiratory syncytial virus
[20] = molecular target: T7, Ubiquitin-conjugating enzyme E2 N (Homo sapiens, UniProt P61088); assay type: functional
T7 sequence (P61088 whole entry): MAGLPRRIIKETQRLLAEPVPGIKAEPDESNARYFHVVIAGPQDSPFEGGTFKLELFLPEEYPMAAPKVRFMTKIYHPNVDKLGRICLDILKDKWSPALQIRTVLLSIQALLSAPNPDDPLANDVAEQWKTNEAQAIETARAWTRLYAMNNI

[21] = molecular target: T8, Bcl-2-related protein A1 (Mus musculus, UniProt Q07440); assay type: functional;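 note: confirmatory dose–response counterscreen on Bfl-1, used to check hits from a UBC13 polyubiquitin inhibitor campaign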
T8 sequence (Q07440 whole entry): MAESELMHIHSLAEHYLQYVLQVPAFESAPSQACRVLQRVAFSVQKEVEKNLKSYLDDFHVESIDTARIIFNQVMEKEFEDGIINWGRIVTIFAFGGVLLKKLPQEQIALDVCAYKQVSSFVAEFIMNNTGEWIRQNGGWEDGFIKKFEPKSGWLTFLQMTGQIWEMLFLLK

[22] = molecular target: T7, Ubiquitin-conjugating enzyme E2 N; assay type: functional; remark: listed apart in the source
[23] = molecular target: Kappa-type opioid receptor (Homo sapiens, UniProt P41145); assay: SAR analysis of small molecule agonists of the kappa opioid receptor via a luminescent beta-arrestin assay - Set 3. [Related pubchem assays (depositor defined):AID1777, AID1785, AID1786, AID1966, AID2133, AID2136, AID2284, AID2500]; assay type: functional
Chain of Kappa-type opioid receptor (P41145 whole entry): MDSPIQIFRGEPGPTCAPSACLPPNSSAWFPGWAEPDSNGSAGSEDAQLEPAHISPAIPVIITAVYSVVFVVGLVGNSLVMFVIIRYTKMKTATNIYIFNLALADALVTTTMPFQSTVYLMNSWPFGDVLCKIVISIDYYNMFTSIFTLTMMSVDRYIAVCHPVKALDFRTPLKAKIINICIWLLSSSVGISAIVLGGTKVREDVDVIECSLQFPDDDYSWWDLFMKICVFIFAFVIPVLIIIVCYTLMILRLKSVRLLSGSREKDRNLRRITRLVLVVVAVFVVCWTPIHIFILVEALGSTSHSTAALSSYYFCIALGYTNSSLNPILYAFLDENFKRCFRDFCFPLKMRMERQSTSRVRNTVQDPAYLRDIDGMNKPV

T1 sequence (Q9HC97 whole entry): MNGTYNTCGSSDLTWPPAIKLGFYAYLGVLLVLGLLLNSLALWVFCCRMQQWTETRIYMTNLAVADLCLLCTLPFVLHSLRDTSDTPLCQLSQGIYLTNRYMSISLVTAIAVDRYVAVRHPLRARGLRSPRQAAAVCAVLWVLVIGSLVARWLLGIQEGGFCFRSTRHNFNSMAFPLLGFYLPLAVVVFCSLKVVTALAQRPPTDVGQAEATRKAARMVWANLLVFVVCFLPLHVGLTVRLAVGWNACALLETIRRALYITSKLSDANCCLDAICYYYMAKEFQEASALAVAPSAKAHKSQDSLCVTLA

Cc1cccc(N2CCN(C(=O)c3cccc(S(=O)(=O)N4CCCCC4)c3)CC2)c1C
IC50 [1]: > 32 µM (inactive) | EC50 [2]: > 32 µM (inactive) | EC50 [3]: > 32 µM (inactive) | IC50 [4]: > 32 µM (inactive) | EC50 [5]: > 32 µM (inactive) | EC50 [6]: > 32 µM (inactive) | IC50 [7]: > 32 µM (inactive)

O=C1Nc2ccc(Br)cc2C12NNc1ccccc1O2 (centres undefined)
IC50 [8]: > 100 µM (inactive) | IC50 [9]: 11.3 µM (inactive) | IC50 [10]: 8.09 µM (active) | EC50 [11]: 73.1 µM (inactive) | EC50 [12]: > 99 µM (inactive) | EC50 [13]: 0.257 µM (active) | IC50 [14]: > 100 µM (inactive) | EC50 [15]: 10.1 µM (active) | CC50 [16]: 23.8 µM (active) | IC50 [17]: > 100 µM (inactive) | AC50 [18]: 3.34 µM (active)

C#CCOCCOCCOCCNc1nc(N2CCN(C(=O)CCCCCCCCCCNC(=O)[C@H]([C@@H](C)CC)n3cc(CCCCN=C(N)N)nn3)CC2)nc(N2CCN(C(=O)CCCCCCCCCCNC(=O)[C@H](CO)n3cc(CCCSC)nn3)CC2)n1
CC50 [19]: 13.7 µM (active) | IC50 [20]: 5.99 µM (active) | IC50 [21]: 3.11 µM (active) | EC50 [15]: 40.7 µM (active) | IC50 [22]: 3.7 µM (active)

CCCCN(Cc1cc2cc(Cl)ccc2[nH]c1=O)C(=O)c1cccs1
EC50 [23]: > 20 µM (inactive)
